Data from paper PMC10093212, “Development of Cyclic Peptides Targeting the Epidermal Growth Factor Receptor in Mesenchymal Triple-Negative Breast Cancer Subtype” (Cells, 2023).
Bridge positions count the residues as written; N and C are the ends. Ends that are not written are not given here.

Legend:
[1] = tested on: MDA-MB-231 EGFR KO xenograft; experiment: Confocal immunofluorescence of tumor xenograft tissue sections with FITC-peptides; design: species or system human; settings: MDA-MB-231 EGFR KO xenograft sections, FITC-peptide 10 μg/mL, 45 min, 37 °C; confocal microscopy
Procedure: (§1) OCT-embedded MDA-MB-231 xenograft tissue samples derived from Balb/c nude mice were cut in 8–10 µm sections and mounted onto microscope slides for confocal microscopy analysis. Sections were fixed with 4% paraformaldehyde for 30 min at 4 °C, and then for 45 min, incubated at 4 °C with rabbit polyclonal anti-EGFR (1:100 dilution -Bethyl Laboratories, Inc., Montgomery, TX, USA) followed by Alexa Fluor 568-labeled anti-rabbit secondary antibody (1:500 dilution; Thermo Fisher Scientific). After washing, cells were incubated in the dark with FITC-conjugated peptides (Control, 01_cysEGFR, 06_cysEGFR) (10 μg/mL) for 45 min at 37 °C, anti-Wheat Germ Agglutinin (WGA) Alexa Fluor 647 conjugate (1:200 dilution; Thermo Fisher Scientific) for 45 min, and finally with DAPI at the dilution 1:500 for 10 min. Cells were prepared with mounting medium (ProLong antifade, Thermo Fisher Scientific) and visualized by confocal microscopy (LEICA TCS SP8).
EGFR was detected in the MDA-MB-231 xenograft tissue sections by an anti-EGFR antibody as a red fluorescence signal, while it was undetected in MDA-MB-231 EGFR KO (Figure 6).

[2] = tested on: BT549 cells; experiment: Cell cycle analysis by propidium iodide flow cytometry; assay type: cell-based, human; settings: 24 h; for mitogenic activity through the binding to the EGFR: 25 μM, BT549; for cells in G1 phase / cells in G2 phase / cells in S phase: free peptide 25 μM, after 18 h serum starvation, 0.2% FBS, PI staining, two experiments
Procedure: BT549 cells (200,000 cells/well) were seeded onto a 6-well plate in RPMI-1640 complete medium. After adhesion, cells were starved in serum-free RPMI-1640 for 18 h, and then the medium was changed to RPMI-1640 supplemented with 0.2% FBS in the presence or absence of control, 01cys_EGFR and 06_cys EGFR peptides (25 μM). After 24 h of peptide stimulation, cells were trypsinized, washed, and suspended in PBS. Cells were fixed with 1 mL of ice-cold 70% ethanol and incubated for 30 min at 4 °C. Fixed cells were washed three times and stained with 50 μg/mL of propidium iodide and 40 μg/mL of RNAse A. Cell cycle profile was acquired by FACS Canto II and analyzed by Flow Jo software 8.8.6 (Becton Dickinson).
Next, we tested whether the peptides 01cys_EGFR and 06cys_EGFR could affect the cell cycle through the binding to EGFR. To this end, BT549 cells were serum starved for 18h to induce synchronization and then treated with 01cys_EGFR, 06cys_EGFR, and the irrelevant control peptides (25 μM) or left untreated for 24 h. Proliferating cells were stained with propidium iodide to analyze cell cycle distribution by flow cytometry (Figure 7A). The cells treated with 01cys_EGFR, 06cys_EGFR, and control peptides were distributed ~26% in G1, ~64% in S, and ~10% in the G2 phase, which was a similar behavior to unstimulated cells (Figure 7B).
Figure 7 (A) The proportion of BT549 cells untreated or treated with 25 μM of control, 01cys_EGFR, and 06cys_EGFR peptides in G1, S, and G2 phases were determined by flow cytometry and quantified by Flow Jo software using Watson Pragmatic method. […] Data are collected from two different experiments and presented as means ± SD. Paired t-test indicates no statistical significance between peptide-stimulated and unstimulated cells.

[3] = tested on: MDA-MB-231 xenograft tissue; experiment: Confocal immunofluorescence of tumor xenograft tissue sections with FITC-peptides; design: species or system human; settings: MDA-MB-231 xenograft tissue sections, FITC-peptide 10 μg/mL, 45 min, 37 °C; confocal microscopy
Procedure: as §1
Then, we asked whether the 01_cysEGFR and 06_cysEGFR peptides could be used for in vivo analysis of tumor tissues expressing EGFR. To this end, we generated MDA-MB-231 tumor xenograft in mice and performed confocal microscopy analysis of tumor tissue sections upon immunofluorescence staining with FITC-peptides (green signal) or anti-EGFR (red signal) (Figure 6). […]

[4] = tested on: thyroid cancer cell lines (Cal62 and K1); experiment: Flow cytometry binding of FITC-peptides to EGFR-positive thyroid cancer cells; assay type: cell-based, human; settings: Cal62 and K1, especially K1; 10uM FITC-peptide, 45 min; compared with 06cys_EGFR
Procedure: (§2) We analyzed the binding of FITC-conjugated phages on MDA-MB231 cells by flow cytometry. A binding assay was also performed with FITC-conjugated peptides to human MDA-MB-231 and BT-549 cells, murine 4T1 cells, and additional EGFR-positive thyroid cancer cell lines K1 and Cal62. To increase the stringency conditions of in vitro binding, adherent cells were incubated with 10 μg/mL of 01cys_EGFR and 06_cys EGFR for 45 min in the dark at 37 °C instead of 4 °C of the standard protocol. Cells were recovered by a cell scraper, then twice washed with PBS and suspended in 300 μL of BD™ FACSFlow™ fluid. Data were acquired on the BD FACSCanto™ II and analyzed with FlowJo software (Becton Dickinson, San Jose, CA, USA).
In order to evaluate the binding efficacy of our peptides in other EGFR-overexpressing cancer cell types, we choose two different thyroid cancer cell lines (Cal62 and K1).
Figure S3. Pe p t i d e binding assay in EGFR-positive thyroid cancer cells using ﬂow cytometry. Flow cytometric analysis showing EGFR-overexpressing thyroid cancer cell lines K1 and Cal62 unstained or stained with 10uM of FITC- conjugate peptides (control, 01_cysEGFR and 06cys_EGFR) for 45 […]

[5] = tested on: wild-type MDA-MB-231 cells; experiment: Flow cytometry binding of FITC-conjugated phages; assay type: cell-based, human; settings: phage displaying the peptide; compared to 04cys_EGFR and 30cys_EGFR phages
From the text: Phages expressing peptide sequences (01cys_EGFR, 04cys_EGFR, 06cys_EGFR, and 30cys_EGFR) and a wild-type M13 phage were conjugated to fluorescein isothiocyanate (FITC) in order to analyze their binding affinity to EGFR on MDA-MB-231 by flow cytometry. The “Pierce FITC Antibody Labeling Kit” (cat #53027—Thermo Fisher Scientific) was used for the conjugation following the manufacturer’s instructions.
as §2
The binding ability of phages 01cys_EGFR, 04cys_EGFR, 06cys_EGFR, and 30cys_EGFR to the MDA-MB-231 cells were analyzed by flow cytometry. To this end, the phages were conjugated with fluorescein isothiocyanate (FITC) and incubated with wild-type MDA-MB-231 or MDA-MB-231 EGFR- KO cells. […]

[6] = cited from earlier work
From the text: (§3) TNBC is the most aggressive form of breast cancer. There are different TNBC subtypes characterized by intratumor heterogeneity based on morphology, gene expression profile, and response to adjuvant chemotherapies. Unfortunately, TNBC is still lacking effective anticancer targets for clinical treatment. This justifies the urgency to explore new biomarkers and therapeutic strategies for improving the survival outcomes of TNBC patients. EGFR is a tyrosine kinase membrane receptor that contains in the extracellular region the docking site for the epidermal growth factor a ...

[7] = tested on: MDA-MB-231 cells; settings: cited from earlier work
From the text: as §3

[8] = tested on: MDA-MB-468 cells; settings: cited from earlier work
From the text: as §3

Sequence	green fluorescence signal (FITC-peptide staining) [1]	mitogenic activity through the binding to the EGFR [2]	cells in G1 phase [2]	cells in G2 phase [2]	cells in S phase [2]	green fluorescence signal (FITC-peptide staining) [3]	efficacy of binding to thyroid cancer cells [4]	binding of FITC-conjugated phage (percentage of fluorescence) [5]	serum stability [6]	uptake [7]	uptake [8]
CEKMVATHC (disulfide 1-9 (inferred)) [01cys_EGFR, Phage-display selected cyclic EGFR peptide ligand, one disulphide bond, amidated C-terminus]	lack of fluorescence	lacked mitogenic activity	~ 26%	~ 10%	~ 64%	stronger green fluorescence signal	higher efficacy of binding	higher efficiency			
CGGNGPGLC (disulfide 1-9 (inferred)) [irrelevant peptide, Irrelevant peptide synthesized as a negative control, reference compound]			~ 26%	~ 10%	~ 64%	lack of green fluorescence signal					
CPSDEHHTC (disulfide 1-9 (inferred)) [06cys_EGFR, Phage-display selected cyclic EGFR peptide ligand, one disulphide bond, amidated C-terminus]		lacked mitogenic activity	~ 26%	~ 10%	~ 64%			higher efficiency			
YHWYGYTPENVI [peptide 22]									low serum stability	highest uptake	highest uptake
